For the test, the system named is Plasmodium berghei. Kind of test: Luciferase/luciferin-expressing antifolate-resistant parasites were used to infect a culture of HepG2 cells that were pre-incubated with compounds. Infected hepatocytes emit light due to the luciferase reaction. Assay results are presented as the percent inhibition of light emission compared to control. […]. The class given is functional. Conditions: sporozoite; for IC90: read-out: LUCIFERASE INFECTION ASSAY - IC90.

The mark [1] stands for this setting: read-out: LUCIFERASE INFECTION ASSAY - IC50.

Structures are written as SMILES. pIC50: −log10 of the molar value.

This note sets out measurements from ChEMBL document CHEMBL4483862, “Open-source discovery of chemical leads for next-generation chemoprotective antimalarials” (2018).

With `O=C(Nc1cc(C(F)(F)F)cc(C(F)(F)F)c1)Nc1cnn(-c2ccccc2)c1C(F)(F)F`, the IC90 – broadly, the point of the concentration-response curve where the effect stands at 90% – turned out to be 2.67 µM. In addition, the pIC50 (usually the IC50 on a negative log10 scale, so that one unit is a factor of ten) (HEPG2TOX_HILL_SLOPE 8.4, HEPG2TOX_R_SQUARED 0.935, PBLUC_HILL_SLOPE 10.9, PBLUC_R_SQUARED 0.166, read-out: LUCIFERASE INFECTION ASSAY - IC50) is 5.66.

For the compound `CCOC(=O)c1ccc(Oc2c[nH]nc2-c2ccc(OC)cc2O)cc1`, the IC90 was over 9.31 µM. For the setting “FFLUC_HILL_SLOPE 1.78, FFLUC_R_SQUARED 0.28, read-out: LUCIFERASE INFECTION ASSAY - IC50”, the pIC50 was under 5.03.

For `CC(C)(C)c1ccc(C(=O)Nc2cccc(F)c2C#N)cc1`, the IC90 is over 11.1 µM. In addition, the pIC50 (PBLUC_HILL_SLOPE 11.7, PBLUC_R_SQUARED 0.257, read-out: LUCIFERASE INFECTION ASSAY - IC50) was 5.03.

`Cc1ccc(-c2csc(NC(=O)/C=C/c3cnn(C)c3)n2)o1`: the IC90 was found to be 4.35 µM. For the same compound, the pIC50 (HEPG2TOX_HILL_SLOPE 1.69, HEPG2TOX_R_SQUARED 0.984, PBLUC_HILL_SLOPE 1.61, PBLUC_R_SQUARED 0.8, read-out: LUCIFERASE INFECTION ASSAY - IC50) was 5.95.

Take `CC(C)Cn1c(-c2cccs2)nc2c(c(=O)c3ccccc3n2C)c1=O`: the IC90 came out at 8.59 µM. In addition, the pIC50 (PBLUC_HILL_SLOPE 2.62, PBLUC_R_SQUARED 0.237, read-out: LUCIFERASE INFECTION ASSAY - IC50) is 5.43.

For the compound `CCn1c(-c2ccccc2)c(C(=O)CSc2nnc(N)[nH]2)c2ccccc21`, the IC90 was over 10 µM. Moreover, the pIC50 (FFLUC_HILL_SLOPE 0.751, FFLUC_R_SQUARED 0.0256, read-out: LUCIFERASE INFECTION ASSAY - IC50) was under 5.00.

Turning to `COc1ccccc1-c1nc(-c2ccc(CCCNC(C)=O)cc2)cs1`, the IC90 is over 10 µM. Further, under “PBLUC_HILL_SLOPE 1.19, PBLUC_R_SQUARED 0.431, read-out: LUCIFERASE INFECTION ASSAY - IC50”, the pIC50 was 5.27.

On to `C(=N\Nc1ncnc2sc(-c3ccccc3)cc12)/c1sc(N2CCCCC2)nc1-c1cccs1`, for which the IC90 was 1.21 µM. Moreover, the pIC50 (FFLUC_HILL_SLOPE 0.658, FFLUC_R_SQUARED 0.126, HEPG2TOX_HILL_SLOPE 2.14, HEPG2TOX_R_SQUARED 0.958, PBLUC_HILL_SLOPE 24.1, PBLUC_R_SQUARED 0.279, read-out: LUCIFERASE INFECTION ASSAY - IC50) was 5.95.

Turning to `Cc1cc(C(=O)C(C)Sc2ncnc3sc(-c4ccccc4)cc23)c(C)n1-c1ccc(OC(F)F)cc1` (stereo not drawn), the IC90 was over 10 µM. The pIC50 (FFLUC_HILL_SLOPE 3.01, FFLUC_R_SQUARED 0.199, HEPG2TOX_HILL_SLOPE 3.15, HEPG2TOX_R_SQUARED 0.925, PBLUC_HILL_SLOPE 3.1, PBLUC_R_SQUARED 0.165, read-out: LUCIFERASE INFECTION ASSAY - IC50) is 5.15.

On to `O=C(CSCc1cn(-c2ccccc2)nc1-c1ccccc1)NC1CCCC1`, for which the IC90 was over 10 µM. The pIC50 (PBLUC_HILL_SLOPE 4.68, PBLUC_R_SQUARED 0.205, read-out: LUCIFERASE INFECTION ASSAY - IC50) is 5.16.

Take `CCOc1ccc(OCC)c(NC(=O)/C=C/c2c(C)nn(-c3ccccc3)c2C)c1`: the IC90 was over 10 µM. In addition, the pIC50 under setting [1] was 5.04.

For `Fc1ccc(-c2cc3[nH]c(NCc4ccccc4)nc3cn2)cc1Cl`, the IC90 came out at 5.42 µM. The pIC50 (HEPG2TOX_HILL_SLOPE 17.8, HEPG2TOX_R_SQUARED 0.722, PBLUC_HILL_SLOPE 354, PBLUC_R_SQUARED 0.159, read-out: LUCIFERASE INFECTION ASSAY - IC50) is 5.27.

As to `COc1ccc(Nc2nc(NCCO)c3ccccc3n2)cc1`, the IC90 is over 10 µM. In addition, the pIC50 under setting [1] is under 5.00.

As for `CC(C)c1ccc(/C=C/c2ccc(=O)[nH]n2)cc1`, the IC90 came to 0.563 µM. In addition, for the setting “HEPG2TOX_HILL_SLOPE 1.26, HEPG2TOX_R_SQUARED 0.973, PBLUC_HILL_SLOPE 20.6, PBLUC_R_SQUARED 0.746, read-out: LUCIFERASE INFECTION ASSAY - IC50”, the pIC50 is 6.30.

On to `Cc1cc(O)c(C(C)C)cc1NC1=NC(=O)S/C1=C\c1ccccc1OCC(=O)Nc1ccc(Cl)cc1`, for which the IC90 was 9.08 µM. The pIC50 (FFLUC_HILL_SLOPE 1.8, FFLUC_R_SQUARED 0.548, PBLUC_HILL_SLOPE 29.3, PBLUC_R_SQUARED 0.485, read-out: LUCIFERASE INFECTION ASSAY - IC50) is 5.07.

For the compound `CCCc1cc(NCc2ccccn2)n2nc(C)c(-c3ccccc3)c2n1`, the IC90 came out at 4.47 µM. The pIC50 (PBLUC_HILL_SLOPE 8.47, PBLUC_R_SQUARED 0.549, read-out: LUCIFERASE INFECTION ASSAY - IC50) is 5.46.

As for `COc1ccccc1N1CCN(c2oc(-c3ccccc3Cl)nc2S(=O)(=O)c2ccc(C)cc2)CC1`, the IC90 was over 10 µM. In addition, where the note is “PBLUC_HILL_SLOPE 1.06, PBLUC_R_SQUARED 0.3, read-out: LUCIFERASE INFECTION ASSAY - IC50”, the pIC50 is under 5.00.

Consider `CC(OC(=O)c1cccc(NC(=O)c2cccs2)c1)C(=O)C12CC3CC(CC(C3)C1)C2` (stereo not drawn), for which the IC90 worked out at 3.57 µM. Besides, the pIC50 (PBLUC_HILL_SLOPE 20.8, PBLUC_R_SQUARED 0.61, read-out: LUCIFERASE INFECTION ASSAY - IC50) was 5.49.

With `CNc1ncnc(NNC(=O)Nc2ccccc2)c1[N+](=O)[O-]`, the IC90 is over 10.9 µM. For the same compound, the pIC50 (HEPG2TOX_HILL_SLOPE 0.255, HEPG2TOX_R_SQUARED 0.589, PBLUC_HILL_SLOPE 1.34, PBLUC_R_SQUARED 0.392, read-out: LUCIFERASE INFECTION ASSAY - IC50) was 5.22.

Turning to `Cc1nn(-c2ccccn2)c2c1C(c1ccccc1Cl)C1=C(N2)c2ccccc2C1=O` (stereo not drawn), the IC90 is over 10 µM. The pIC50 (PBLUC_HILL_SLOPE 22.1, PBLUC_R_SQUARED 0.617, read-out: LUCIFERASE INFECTION ASSAY - IC50) is 5.04.

With `CN(Cc1nc(-c2ccccc2)c2ccccc2n1)Cc1nc(=O)c2ccccc2[nH]1`, the IC90 was over 10 µM. In addition, under setting [1], the pIC50 was under 5.00.

In the case of `COc1ccc(-n2cnnc2SCC(=O)NC(=O)NC2CCCC2)cc1`, the IC90 is over 10 µM. For the same compound, under “FFLUC_HILL_SLOPE 14.6, FFLUC_R_SQUARED 0.0899, read-out: LUCIFERASE INFECTION ASSAY - IC50”, the pIC50 is under 5.00.

`CCCCCc1c(C)nc(-c2ccccn2)nc1O`: the IC90 is over 12.8 µM. For the same compound, under setting [1], the pIC50 was under 4.89.

On to `CC(Nc1ncnc2sccc12)c1ccc(-n2cncn2)cc1` (stereo not drawn), for which the IC90 was over 10 µM. The pIC50 (HEPG2TOX_HILL_SLOPE 0.68, HEPG2TOX_R_SQUARED 0.808, PBLUC_HILL_SLOPE 0.888, PBLUC_R_SQUARED 0.682, read-out: LUCIFERASE INFECTION ASSAY - IC50) was 5.71.

For the compound `O=C(/C=C/c1cccnc1)c1ccc(S(=O)(=O)NCc2ccccc2Cl)cc1`, the IC90 was determined as 5.93 µM. Besides, the pIC50 (FFLUC_HILL_SLOPE 11, FFLUC_R_SQUARED 0.373, HEPG2TOX_HILL_SLOPE 8.76, HEPG2TOX_R_SQUARED 0.66, PBLUC_HILL_SLOPE 5.1, PBLUC_R_SQUARED 0.695, read-out: LUCIFERASE INFECTION ASSAY - IC50) was 5.41.

For `O=S(=O)(c1ccc2oc(Nc3ccc(Cl)c(C(F)(F)F)c3)nc2c1)N1CCOCC1`, the IC90 was over 10 µM. Further, for the setting “HEPG2TOX_HILL_SLOPE 6.56, HEPG2TOX_R_SQUARED 0.393, PBLUC_HILL_SLOPE 2.74, PBLUC_R_SQUARED 0.701, read-out: LUCIFERASE INFECTION ASSAY - IC50”, the pIC50 was 5.35.

`CCN(CC)c1ccc(Nc2nc(-c3c(C)nc4ncccn34)cs2)cc1`: the IC90 amounted to 6.56 µM. Moreover, the pIC50 (HEPG2TOX_HILL_SLOPE 1.79, HEPG2TOX_R_SQUARED 0.957, PBLUC_HILL_SLOPE 3.27, PBLUC_R_SQUARED 0.301, read-out: LUCIFERASE INFECTION ASSAY - IC50) is 5.47.

For `Cc1nnc(NC(=O)c2ccc3c(c2)SC2=NS(=O)(=O)CCN23)s1`, the IC90 was over 10 µM. Besides, the pIC50 under setting [1] was under 5.00.

On to `O=C(Nc1nc2ccccc2[nH]1)c1cc(-c2ccccn2)nc2ccccc12`, for which the IC90 was 9.7 µM. Moreover, the pIC50 (PBLUC_HILL_SLOPE 9.86, PBLUC_R_SQUARED 0.717, read-out: LUCIFERASE INFECTION ASSAY - IC50) is 5.11.

Turning to `CCN(Cc1ccc2c(c1)OCO2)C(=O)c1oc2c(F)cccc2c1C`, the IC90 was over 10 µM. For the same compound, the negative-log IC50 (pIC50) (FFLUC_HILL_SLOPE 1.31, FFLUC_R_SQUARED 0.0559, read-out: LUCIFERASE INFECTION ASSAY - IC50) is under 5.00.

Regarding `COc1ccc(C(=O)COC(=O)Cc2cccc(C(F)(F)F)c2)cc1`, the IC90 amounted to 1.69 µM. Moreover, the pIC50 (HEPG2TOX_HILL_SLOPE 1.29, HEPG2TOX_R_SQUARED 0.956, PBLUC_HILL_SLOPE 8.73, PBLUC_R_SQUARED 0.385, read-out: LUCIFERASE INFECTION ASSAY - IC50) was 5.88.

Regarding `CC(=C(C#N)C#N)c1ccc(Cl)cc1`, the IC90 is over 16.3 µM. For the setting “FFLUC_HILL_SLOPE 16.5, FFLUC_R_SQUARED 0.121, read-out: LUCIFERASE INFECTION ASSAY - IC50”, the pIC50 was under 4.79.

Turning to `COc1ccc(CN2C(=O)N(CC(C)C)C3(CCN(Cc4ccc5c(c4)CCO5)CC3)C2=O)cc1`, the IC90 is over 6.91 µM. For the same compound, the pIC50 (HEPG2TOX_HILL_SLOPE 0.211, HEPG2TOX_R_SQUARED 0.0109, PBLUC_HILL_SLOPE 2.27, PBLUC_R_SQUARED 0.453, read-out: LUCIFERASE INFECTION ASSAY - IC50) was 5.45.

For `COc1cc(OC)c2c(-c3ccccc3)cc(SCC(=O)N(C)C3CCS(=O)(=O)C3)nc2c1` (stereo not drawn), the IC90 was over 10 µM. Also, the pIC50 under setting [1] was under 5.00.
